Measurements from patent publication US4423242A, “Pharmaceutical amides, and preparation, formulations and use of thereof” (The Wellcome Foundation Ltd., priority 1981, dated 1983).
Counter-ions that a name gives are not always drawn. Like-named read-outs stand apart in the source and are kept apart here.

How the values were obtained:
[1] = molecular target: T1, purified enkephalinase Al (Rattus norvegicus, UniProt P07861); assay: Enkephalinase-inhibiting activity in vitro (inhibition of 3H-TGG generation from 3H-leucine enkephalin); type: biochemical; conditions: leucine enkephalin 5×10^-5 M, 30° C., 30 min with enzyme
T1 construct: the solubilised enzymes contained in the supernatant separated by DEAE-cellulose column chromatography; from tissue; host or cells: rat striatum, washed membrane pellet solubilised with Triton X-100, DEAE-cellulose then Sephacryl S.300
T1 sequence (P07861 1-750): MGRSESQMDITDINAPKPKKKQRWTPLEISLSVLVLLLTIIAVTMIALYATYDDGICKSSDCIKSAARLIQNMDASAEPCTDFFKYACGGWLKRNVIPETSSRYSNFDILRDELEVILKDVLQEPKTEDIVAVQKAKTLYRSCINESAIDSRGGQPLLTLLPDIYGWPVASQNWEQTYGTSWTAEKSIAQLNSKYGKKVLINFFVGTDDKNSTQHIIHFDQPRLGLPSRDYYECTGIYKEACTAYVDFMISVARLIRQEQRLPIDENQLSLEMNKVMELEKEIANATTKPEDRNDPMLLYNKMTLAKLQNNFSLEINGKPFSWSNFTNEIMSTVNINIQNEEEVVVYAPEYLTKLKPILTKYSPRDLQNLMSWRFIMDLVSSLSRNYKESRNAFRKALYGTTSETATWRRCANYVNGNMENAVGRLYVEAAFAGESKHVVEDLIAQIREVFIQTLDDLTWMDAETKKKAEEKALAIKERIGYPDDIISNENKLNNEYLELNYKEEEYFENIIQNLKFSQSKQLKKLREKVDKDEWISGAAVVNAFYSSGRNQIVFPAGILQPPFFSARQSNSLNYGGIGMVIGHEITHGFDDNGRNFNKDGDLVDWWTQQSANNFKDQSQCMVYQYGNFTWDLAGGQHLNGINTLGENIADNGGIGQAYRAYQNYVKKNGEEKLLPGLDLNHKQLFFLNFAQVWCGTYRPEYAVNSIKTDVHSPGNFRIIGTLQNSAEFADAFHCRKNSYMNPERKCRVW
Description: The compounds were investigated for enkephalinase-inhibiting activity using the following method.
Purified enkephalinase Al was obtained according to the following procedure (modification of the method of Gorenstein and Snyder, Life Science, Vol. 25, pages 2065-2070, 1979).
Rats were killed by decapitation and the striata dissected out on ice. The pooled tissues were homogenised in ice-cold Tris/hydrochloric acid buffer (50 mM, pH 7.70, 30 ml per gram of tissue) and centrifuged (50,000 g, 15 mins). The resulting supernatent was discarded and the remaining pellet washed three times. The washed pellet was solubilised by resuspension in half the volume of buffer as before containing 1.0% (v/v) Triton X-100 and incubated at 37° C. for 45 mins. The suspension was then centrifuged at 100,000 g for 60 mins and the solubilised enzymes contained in the supernatant separated by DEAE-cellulose column chromatography. Enkephalinase Al was further purified by Sephacryl S.300 chromatography.
Enkephalinase-inhibiting activity was estimated by the following procedure. 1.75 μl of leucine enkephalin (0.317 mg/ml), 0.5 μl of ^3 H-leucine enkephalin (tyrosyl-3,5-^3 H Enkephalin (5-L-Leucine), The Radiochemical Centre, Amersham, England) and 5.75 μl of buffer as before were incubated at 30° C. for 10 mins with 2 μl of either a solution of test compound (in either 50% ethanol/0.1 M sodium hydrogen carbonate or distilled water) or solvent alone as control. 10 μl of purified enkephalinase Al at 30° C. were added and incubation then continued for a further 30 mins (total incubation time 40 mins, final leucine enkephalin concentration 5×10^-5 M, final ^3 H-leucine enkephalin concentration 12.5 μCi/ml). At the completion of incubation 3 μl of 0.16 M hydrochloric acid was added and the incubation mixture cooled on ice.
Separation of (a) unchanged ^3 H-leucine enkephalin and (b) ^3 H-Tyr-Gly-Gly-OH (^3 H-TGG), generated from (a) by enkephalinase Al in the incubation mixture was effected by thin layer chromatography (plastic silica gel plates of 0.1 mm layer chromatography (plastic silica gel plates of 0.1 mm layer thickness, solvent system ethyl acetate: propan-2-ol: 5% (v/v) acetic acid, 2:2:1) using solutions of the cold compounds as carriers. After drying the materials were visualized with ninhydrin and appropriate areas of the plates cut out and placed in scintillation vials containing 50% methanol/0.1 M hydrochloric acid to elute the ^3 H label. Biofluor reagent (10 ml) was then added and the radioactivity determined by liquid scintillation counting.
The ^3 H-TGG generated in the presence of test compound (expressed as a percentage of the control figure) was then calculated and an approximate IC50 figure (concentration of test compound required for 50% inhibition of ^3 H-TGG generation) then determined graphically.

[2] = tested on: ACE versus enkephalinase; conditions: reported by Swerts et al.; ACE vs enkephalinase; cited from earlier work
[3] = approximate, determined graphically, read-out: IC50 (concentration of test compound required for 50% inhibition of 3H-TGG generation)
[4] = no effect at 3 × 10^-5, read-out: IC50 (footnote symbol: no effect)

Row | IC50 [1, 3] [µM] | Structure (SMILES) | concentration required to inhibit ACE by 50% lower than that required for the same degree of inhibition of enkephalinase [2] | IC50 [1, 4] [µM]
1 | 1.8 | COc1ccc(CC(C(=O)N[C@@H](CC(C)C)C(=O)O)P(=O)(O)O)cc1 (single isomer, unassigned) [Compound No. 1, N-[2-(Dihydroxyphosphinyl)-3-(4-methoxyphenyl)propionyl]-L-leucine] |  | 
2 | 0.68 | CCOC(=O)[C@H](CC(C)C)NC(=O)C(Cc1ccccc1)CP(=O)(O)O (single isomer, unassigned) [compound 11] |  | 
3 | 100 | CCOC(=O)[C@H](CC(C)C)NC(=O)C(Cc1ccccc1)CP(=O)(O)O (single isomer, unassigned) [compound 12] |  | 
4 | 0.16 | CC(C)C[C@H](NC(=O)C(Cc1ccccc1)CP(=O)(O)O)C(=O)O (single isomer, unassigned) [compound 13, N-[2-Benzyl-3-(dihydroxyphosphinyl)propionyl]leucine] |  | 
5 | 18 | CC(C)C[C@H](NC(=O)C(Cc1ccccc1)CP(=O)(O)O)C(=O)O (single isomer, unassigned) [compound 14, N-[2-Benzyl-3-(dihydroxyphosphinyl)propionyl]leucine] |  | 
6 | 30 | C[C@H](CS)C(=O)N1CCC[C@H]1C(=O)O [Captopril, 1-(D-3-mercapto-2-methylpropanoyl)-L-proline (S,S), reference compound] | approximately 1000 fold | 
7 | 0.68 | CC(C)C[C@H](NC(=O)C(Cc1ccccc1)P(=O)(O)O)C(=O)O (stereo partly drawn) [Compound No. 7, N-[2-(Dihydroxyphosphinyl)-3-phenylpropionyl]-L-leucine tri-lithium salt] |  | 
8 | 6.8 | CC(C)C[C@H](NC(=O)C(Cc1ccc(Br)cc1)P(=O)(O)O)C(=O)O (stereo partly drawn) [Compound No. 9, N-[3-(4-bromophenyl)-2-dihydroxyphosphinylpropionyl]-L-leucine, monosodium salt] |  | 
9 | 23 | CC(C)C[C@H](NC(=O)C(Cc1ccc(C(C)C)cc1)P(=O)(O)O)C(=O)O (stereo partly drawn) [Compound No. 10, N-[2-dihydroxyphosphinyl-3-(4-isopropylphenyl)propionyl]-L-leucine, disodium salt] |  | 
10 |  | CCOC(=O)[C@H](CC(C)C)NC(=O)C(Cc1ccccc1)P(=O)(OCC)OCC (stereo partly drawn) [compound 2, N-[2-(Diethoxyphosphinyl)-3-phenylpropionyl]-L-leucine ethyl ester] |  | > 30
11 | 0.6 | CCOC(=O)[C@H](CC(C)C)NC(=O)C(Cc1ccccc1)P(=O)(O)O (stereo partly drawn) [compound 4, N-[2-(Dihydroxyphosphinyl)-3-phenylpropionyl.-L-leucine] ethyl ester] |  | 
12 | 1.5 | CCOC(=O)[C@H](CC(C)C)NC(=O)C(Cc1ccccc1)P(=O)(O)O (stereo partly drawn) [compound 5, N-[2-(Dihydroxyphosphinyl)-3-phenylpropionyl.-L-leucine] ethyl ester] |  | 
13 | 0.13 | CC(C)C[C@H](NC(=O)C(Cc1ccccc1)P(=O)(O)O)C(=O)O (stereo partly drawn) [compound 6, N-[2-(Dihydroxyphosphinyl)-3-phenylpropionyl]-L-leucine tri-lithium salt] |  | 
14 |  | CCOP(=O)(OCC)C(Cc1ccccc1)C(=O)N[C@@H](CC(C)C)C(=O)O (stereo partly drawn) [compound 8, N-[2-(Diethoxyphosphinyl)-3-phenylpropionyl]-L-leucine] |  | > 30
